Data from PubChem BioAssay (NCI).
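All cell lines were grown in 96-well plates and treated with compound for 48 hours. TGI: total growth inhibition.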

Tests used:
Test in all cases: NCI-60 cell line screen, 48 h
HCC-2998 colon = system: HCC-2998 colon
RXF 393 renal = system: RXF 393 renal
NCI-H226 lung = system: NCI-H226 lung
HOP-62 NSCLC = system: HOP-62 NSCLC
HT29 colon = system: HT29 colon
HOP-92 NSCLC = system: HOP-92 NSCLC
CCRF-CEM leukemia = system: CCRF-CEM leukemia
MOLT-4 leukemia = system: MOLT-4 leukemia
HL-60(TB) leukemia = system: HL-60(TB) leukemia
786-0 renal = system: 786-0 renal
OVCAR-8 ovarian = system: OVCAR-8 ovarian
SW-620 colon = system: SW-620 colon
ACHN renal = system: ACHN renal
OVCAR-5 ovarian = system: OVCAR-5 ovarian
NCI-H23 lung = system: NCI-H23 lung
SK-MEL-2 melanoma = system: SK-MEL-2 melanoma
U251 CNS = system: U251 CNS
M19-MEL melanoma = system: M19-MEL melanoma
SK-OV-3 ovarian = system: SK-OV-3 ovarian
CAKI-1 renal = system: CAKI-1 renal
TK-10 renal = system: TK-10 renal
HCT-15 colon = system: HCT-15 colon
SNB-19 CNS = system: SNB-19 CNS
DMS 273 small cell lung = system: DMS 273 small cell lung
SNB-75 CNS = system: SNB-75 CNS
OVCAR-4 ovarian = system: OVCAR-4 ovarian
DLD-1 colon = system: DLD-1 colon
K-562 leukemia = system: K-562 leukemia
NCI-H522 lung = system: NCI-H522 lung
A498 renal = system: A498 renal
EKVX NSCLC = system: EKVX NSCLC
IGROV1 ovarian = system: IGROV1 ovarian
SN12C renal = system: SN12C renal
SK-MEL-5 melanoma = system: SK-MEL-5 melanoma
SF-295 CNS = system: SF-295 CNS
DMS 114 small cell lung = system: DMS 114 small cell lung
KM12 colon = system: KM12 colon
RPMI-8226 leukemia = system: RPMI-8226 leukemia
MALME-3M melanoma = system: MALME-3M melanoma
SK-MEL-28 melanoma = system: SK-MEL-28 melanoma
SF-268 CNS = system: SF-268 CNS
SNB-78 CNS = system: SNB-78 CNS
UACC-62 melanoma = system: UACC-62 melanoma
LOX IMVI melanoma = system: LOX IMVI melanoma
COLO 205 colon = system: COLO 205 colon
UO-31 renal = system: UO-31 renal
UACC-257 melanoma = system: UACC-257 melanoma
KM20L2 colon = system: KM20L2 colon
A549 NSCLC = system: A549 NSCLC
NCI-H460 lung = system: NCI-H460 lung
SF-539 CNS = system: SF-539 CNS
OVCAR-3 ovarian = system: OVCAR-3 ovarian
M14 melanoma = system: M14 melanoma
LXFL 529 NSCLC = system: LXFL 529 NSCLC
HCT-116 colon = system: HCT-116 colon
SR leukemia = system: SR leukemia

## Cc1ccc(S(=O)(=O)N(/N=C/C=C/c2ccccc2)c2nnc(-c3ccccc3)c(-c3ccccc3)n2)cc1
HCC-2998 colon
  TGI: 29.5 µM
RXF 393 renal
  TGI: 60.7 µM
NCI-H226 lung
  TGI: 55.6 µM
HOP-62 NSCLC
  TGI: 48.9 µM
HT29 colon
  TGI: 23 µM
HOP-92 NSCLC
  TGI: 47.4 µM
CCRF-CEM leukemia
  TGI: > 100 µM
MOLT-4 leukemia
  TGI: 76.5 µM
HL-60(TB) leukemia
  TGI: 50.4 µM
786-0 renal
  TGI: 74.3 µM
OVCAR-8 ovarian
  TGI: > 100 µM
SW-620 colon
  TGI: > 100 µM
ACHN renal
  TGI: > 100 µM
OVCAR-5 ovarian
  TGI: > 100 µM
NCI-H23 lung
  TGI: 66.8 µM
SK-MEL-2 melanoma
  TGI: 47.8 µM
U251 CNS
  TGI: > 100 µM
M19-MEL melanoma
  TGI: 78.3 µM
SK-OV-3 ovarian
  TGI: 75.1 µM
CAKI-1 renal
  TGI: 57 µM
TK-10 renal
  TGI: 76.9 µM
HCT-15 colon
  TGI: > 100 µM
SNB-19 CNS
  TGI: > 100 µM
DMS 273 small cell lung
  TGI: 66.9 µM
SNB-75 CNS
  TGI: 69 µM
OVCAR-4 ovarian
  TGI: > 100 µM
DLD-1 colon
  TGI: > 100 µM
K-562 leukemia
  TGI: 80 µM
NCI-H522 lung
  TGI: 51.9 µM
A498 renal
  TGI: > 100 µM
EKVX NSCLC
  TGI: > 100 µM
IGROV1 ovarian
  TGI: > 100 µM
SN12C renal
  TGI: > 100 µM
SK-MEL-5 melanoma
  TGI: 35.1 µM
SF-295 CNS
  TGI: 64.3 µM
DMS 114 small cell lung
  TGI: 54.1 µM
KM12 colon
  TGI: > 100 µM
RPMI-8226 leukemia
  TGI: 40.3 µM
MALME-3M melanoma
  TGI: > 100 µM
SK-MEL-28 melanoma
  TGI: 78.4 µM
SF-268 CNS
  TGI: 96.9 µM
SNB-78 CNS
  TGI: > 100 µM
UACC-62 melanoma
  TGI: > 100 µM
LOX IMVI melanoma
  TGI: 51.3 µM
COLO 205 colon
  TGI: 36.1 µM
UO-31 renal
  TGI: 23.4 µM
UACC-257 melanoma
  TGI: 98.7 µM
KM20L2 colon
  TGI: 40.5 µM
A549 NSCLC
  TGI: 94.4 µM
NCI-H460 lung
  TGI: > 100 µM
SF-539 CNS
  TGI: 33 µM
OVCAR-3 ovarian
  TGI: 88.6 µM
M14 melanoma
  TGI: 49.4 µM

## CCC1=C(CC)C1(C#N)[N+](=O)[O-]
LXFL 529 NSCLC
  TGI: > 100 µM
NCI-H226 lung
  TGI: > 100 µM
HOP-62 NSCLC
  TGI: > 100 µM
HT29 colon
  TGI: > 100 µM
CCRF-CEM leukemia
  TGI: > 100 µM
MOLT-4 leukemia
  TGI: > 100 µM
HL-60(TB) leukemia
  TGI: > 100 µM
786-0 renal
  TGI: > 100 µM
OVCAR-8 ovarian
  TGI: > 100 µM
SW-620 colon
  TGI: > 100 µM
ACHN renal
  TGI: > 100 µM
OVCAR-5 ovarian
  TGI: > 100 µM
NCI-H23 lung
  TGI: > 100 µM
SK-MEL-2 melanoma
  TGI: > 100 µM
HCT-116 colon
  TGI: > 100 µM
SR leukemia
  TGI: > 100 µM
U251 CNS
  TGI: > 100 µM
M19-MEL melanoma
  TGI: > 100 µM
SK-OV-3 ovarian
  TGI: > 100 µM
CAKI-1 renal
  TGI: > 100 µM
TK-10 renal
  TGI: > 100 µM
HCT-15 colon
  TGI: > 100 µM
SNB-19 CNS
  TGI: > 100 µM
DMS 273 small cell lung
  TGI: > 100 µM
OVCAR-4 ovarian
  TGI: > 100 µM
DLD-1 colon
  TGI: > 100 µM
K-562 leukemia
  TGI: > 100 µM
NCI-H522 lung
  TGI: > 100 µM
A498 renal
  TGI: > 100 µM
EKVX NSCLC
  TGI: > 100 µM
IGROV1 ovarian
  TGI: > 100 µM
SN12C renal
  TGI: > 100 µM
SK-MEL-5 melanoma
  TGI: > 100 µM
SF-295 CNS
  TGI: > 100 µM
DMS 114 small cell lung
  TGI: > 100 µM
KM12 colon
  TGI: > 100 µM
RPMI-8226 leukemia
  TGI: > 100 µM
MALME-3M melanoma
  TGI: > 100 µM
SF-268 CNS
  TGI: > 100 µM
SNB-78 CNS
  TGI: > 100 µM
UACC-62 melanoma
  TGI: > 100 µM
LOX IMVI melanoma
  TGI: > 100 µM
COLO 205 colon
  TGI: > 100 µM
UO-31 renal
  TGI: > 100 µM
UACC-257 melanoma
  TGI: > 100 µM
KM20L2 colon
  TGI: > 100 µM
A549 NSCLC
  TGI: > 100 µM
NCI-H460 lung
  TGI: > 100 µM
SF-539 CNS
  TGI: > 100 µM
OVCAR-3 ovarian
  TGI: > 100 µM
M14 melanoma
  TGI: > 100 µM
